Measured values published in US9278958B2, “Anti-cancer compounds” (KATHOLIEKE UNIVERSITEIT LEUVEN, priority 2012, dated 2016).
Read-outs that look alike come from different tables or passages of the source.

How the values were obtained:
PLC/PRF/5 hepatoma cells = assay: Cytostatic assay, PLC/PRF/5; assay type: cell-based; conditions: Homo sapiens, Table 4
Procedure: (§1) To each well of a 96-well microtiter plate were added 5-7.5×10^4 cells and a given amount of the test compound. The cells were allowed to proliferate for 48 h to 96 h (depending on the nature of the cell line) at 37° C. in a humidified CO2-controlled atmosphere. At the end of the incubation period, the cells were counted in a Coulter Counter (Coulter Electronics Ltd, Harpenden Herts, United Kingdom).

[1] = tested on: protein synthesis in CEM cells; assay: Antimetabolic activity assay, [4,5-3H]leucine incorporation (protein synthesis), CEM; assay type: cell-based; conditions: Homo sapiens, CCRF-CEM, incorporation into TCA-insoluble material
Procedure: (§2) Radiolabeled precursors of DNA synthesis ([^3H-methyl]dThd), RNA synthesis ([5-^3H]Urd), and protein synthesis ([4,5-^3H]leu) were added to 10^5 CEM cell cultures in the 200 μl-wells of a microtiter plate at 1 μCi for each precursor in the presence of varying concentrations of the test compounds (5-fold dilution series). The cells were allowed to proliferate for 20 hrs at 37° C. in a humidified, CO2-controlled atmosphere. At the end of the incubation period, the contents of the wells were brought onto 25-mm glass fiber filters and further processed for measurement of acid-insoluble radioactivity.

[2] = tested on: protein synthesis in Raji cells; assay: Antimetabolic activity assay, [4,5-3H]leucine incorporation (protein synthesis), Raji; assay type: cell-based; conditions: Homo sapiens, incorporation into TCA-insoluble material
Procedure: [The procedure below names another cell line; the source lists this cell line under the same test.] as §2

[3] = tested on: MCF-7 mammary carcinoma cells; assay: Cytostatic assay, MCF-7; assay type: cell-based; conditions: Homo sapiens, MCF7; Table 3
Procedure: as §1

[4] = tested on: DNA synthesis in CEM cells; assay: Antimetabolic activity assay, [CH3-3H]dThd incorporation (DNA synthesis), CEM; assay type: cell-based; conditions: Homo sapiens, CCRF-CEM, incorporation into TCA-insoluble material
Procedure: as §2

[5] = tested on: BAEC aortic endothelial cells; assay: Cytostatic assay, BAEC; assay type: cell-based, bovine; conditions: Bos taurus, Table 3
Procedure: as §1

U87 glioma cells = assay: Cytostatic assay, U87; assay type: cell-based; conditions: Homo sapiens, U-87 MG; Table 3
Procedure: as §1

[6] = tested on: THP-1, human monocytic cells; assay: Cytostatic assay, THP-1; assay type: cell-based; conditions: Table 2
Procedure: as §1

Molt4/C8 cells = assay: Cytostatic assay, Molt4/C8; assay type: cell-based; conditions: Table 2
Procedure: as §1

BPH-1 (UZ) = assay: Cytostatic assay, BPH-1 (UZ); assay type: cell-based; conditions: Homo sapiens, Table 4
Procedure: as §1

[7] = tested on: 293T embryonic kidney cells; assay: Cytostatic assay, 293T; assay type: cell-based; conditions: Homo sapiens, HEK-293T; Table 3
Procedure: as §1

[8] = tested on: DU145 (UZ) prostate cancer cells; assay: Cytostatic assay, DU145 (UZ); assay type: cell-based; conditions: Homo sapiens, DU-145; Table 4
Procedure: as §1

[9] = tested on: Raji, human B-lymphoma cells; assay: Cytostatic assay, Raji; assay type: cell-based; conditions: Table 2
Procedure: as §1

[10] = tested on: DNA synthesis in Raji cells; assay: Antimetabolic activity assay, [CH3-3H]dThd incorporation (DNA synthesis), Raji; assay type: cell-based; conditions: Homo sapiens, incorporation into TCA-insoluble material
Procedure: [The procedure below names another cell line; the source lists this cell line under the same test.] as §2

[11] = tested on: PNT1A (UZ) prostate cells; assay: Cytostatic assay, PNT1A (UZ); assay type: cell-based; conditions: Homo sapiens, Table 4
Procedure: as §1

[12] = tested on: HeLa cervix carcinoma cells; assay: Cytostatic assay, HeLa; assay type: cell-based, human; conditions: Homo sapiens; Table 3; read-out: Cytostatic activity (μM) Hela
In short: (§3)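 Test compound was added to wells holding 5-7.5×10^4 cells. After line-specific growth periods of 48 h to 96 h at 37° C in a moist atmosphere with regulated CO2, the number of cells was recorded by Coulter counting.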

[13] = tested on: RNA synthesis in CEM cells; assay: Antimetabolic activity assay, [5-3H]uridine incorporation (RNA synthesis), CEM; assay type: cell-based; conditions: Homo sapiens, CCRF-CEM, incorporation into TCA-insoluble material
Procedure: as §2

[14] = tested on: Caki-1 kidney carcinoma cells; assay: Cytostatic assay, Caki-1; assay type: cell-based; conditions: Homo sapiens, Table 3
Procedure: as §1

HUT-78 cells = assay: Cytostatic assay, HUT-78; assay type: cell-based; conditions: Homo sapiens, HuT78; Table 2
Procedure: as §1

[15] = tested on: HT29 colorectal carcinoma cells; assay: Cytostatic assay, HT29; assay type: cell-based; conditions: Homo sapiens, HT-29; Table 3
Procedure: as §1

[16] = tested on: U937, human monocytic cells; assay: Cytostatic assay, U937; assay type: cell-based; conditions: U-937, Table 2
Procedure: as §1

[17] = tested on: Caki-2 kidney carcinoma cells; assay: Cytostatic assay, Caki-2; assay type: cell-based; conditions: Homo sapiens, Table 3
Procedure: as §1

C8166 cells = assay: Cytostatic assay, C8166; assay type: cell-based; conditions: Homo sapiens, Table 2
Procedure: as §1

[18] = tested on: 22Rv1 (UZ) prostate cancer cells; assay: Cytostatic assay, 22Rv1 (UZ); assay type: cell-based; conditions: Homo sapiens, Table 4
Procedure: as §1

[19] = tested on: OST TK- osteosarcoma cells; assay: Cytostatic assay, OST TK-; assay type: cell-based; conditions: Homo sapiens; Table 3
Procedure: as §1

[20] = tested on: FM3A mammary carcinoma cells; assay: Cytostatic assay, FM3A; assay type: cell-based, murine; conditions: Mus musculus, Table 3
Procedure: as §1

[21] = tested on: HL60, human leukemia cells; assay: Cytostatic assay, HL-60; assay type: cell-based; conditions: Table 2
Procedure: as §1

MT-2 cells = assay: Cytostatic assay, MT-2; assay type: cell-based; conditions: Homo sapiens, MT2; Table 2
Procedure: as §1

[22] = tested on: LNCaP (UZ) prostate cancer cells; assay: Cytostatic assay, LNCaP (UZ); assay type: cell-based; conditions: Homo sapiens, Table 4
Procedure: as §1

[23] = tested on: HEL embryonic lung fibroblast cells; assay: Cytostatic assay, HEL; assay type: cell-based; conditions: Homo sapiens, Table 3
Procedure: as §1

Huh-7 hepatoma cells = assay: Cytostatic assay, Huh-7; assay type: cell-based; conditions: Homo sapiens, Table 4
Procedure: as §1

[24] = tested on: PC3 (rega) prostate cancer cells; assay: Cytostatic assay, PC3 (rega); assay type: cell-based; conditions: Table 4
Procedure: as §1

Sup T1 cells = assay: Cytostatic assay, Sup T1; assay type: cell-based; conditions: Homo sapiens, Table 2, read-out: Cytostatic activity (μM) Sup T 1
Procedure: as §1

[25] = tested on: PC-3 (UZ) prostate cancer cells; assay: Cytostatic assay, PC-3 (UZ); assay type: cell-based; conditions: Table 4
Procedure: as §1

HepG2C3A hepatoma cells = assay: Cytostatic assay, HepG2C3A; assay type: cell-based; conditions: Homo sapiens, HepG2/C3A; Table 4
Procedure: as §1

[26] = tested on: RNA synthesis in Raji cells; assay: Antimetabolic activity assay, [5-3H]uridine incorporation (RNA synthesis), Raji; assay type: cell-based; conditions: Homo sapiens, incorporation into TCA-insoluble material
Procedure: [The procedure below names another cell line; the source lists this cell line under the same test.] as §2

MT-4 cells = assay: Cytostatic assay, MT-4; assay type: cell-based; conditions: Homo sapiens, MT4; Table 2
Procedure: as §1

CEM cells = assay: Cytostatic assay, CEM; assay type: cell-based; conditions: Homo sapiens, CCRF-CEM
In short: as §3

L1210 cells = assay: Cytostatic assay, L1210; assay type: cell-based; conditions: Mus musculus, Table 2
Procedure: as §1

[27] = Table 1a, read-out: IC50 μM (CEM)
[28] = Table 2, read-out: Cytostatic activity (μM) CEM

Row | SMILES | IC50 (PLC/PRF/5 hepatoma cells) [µM] | IC50 [3] [µM] | IC50 [5] [µM] | IC50 (U87 glioma cells) [µM] | IC50 [6] [µM] | IC50 (Molt4/C8 cells) [µM] | IC50 (BPH-1 (UZ)) [µM] | IC50 [7] [µM] | IC50 [8] [µM] | IC50 [9] [µM] | IC50 [11] [µM] | IC50 [12] [µM] | IC50 [14] [µM] | IC50 (HUT-78 cells) [µM] | IC50 [15] [µM] | IC50 [16] [µM] | IC50 [17] [µM] | IC50 (C8166 cells) [µM] | IC50 [18] [µM] | IC50 [19] [µM] | further results
1 | COC(=O)c1cc(CCc2cc(OC)ccc2OC)sc1N [TR584, 2-Amino-5-[2-(2,5-dimethoxy-phenyl)-ethyl]-thiophene-3-carboxylic acid methyl ester] | 1.3 ± 0.21 | 0.93 ± 0.23 | 2 ± 0.28 | 1.8 ± 0.071 | 3.1 ± 0.07 | 0.42 ± 0.11 | 1.3 ± 0.071 | 1.9 | 1.6 | 2.2 ± 0.28 | 0.77 ± 0.31 | 0.83 ± 0.25 | 2.5 ± 0.6 | 2.6 ± 2.1 | 1.8 ± 0.21 | 4.2 ± 0.07 | 0.93 ± 0.28 | 1.4 ± 0.76 | 0.31 ± 0.087 | 0.68 ± 0.33 | IC50 [1]: 1.1 ± 0.5 µM; IC50 [2]: 62 ± 1 µM; IC50 [4]: 7.5 ± 5.5 µM; IC50 [10]: 82 ± 6 µM; IC50 [13]: 2.4 ± 0.2 µM; IC50 [20]: 2.5 ± 0.28 µM; IC50 [21]: 0.89 ± 0.3 µM; IC50 (MT-2 cells): 4.2 ± 0.79 µM; IC50 [22]: 0.38 ± 0.11 µM; IC50 [23]: 0.87 ± 0.014 µM; IC50 (Huh-7 hepatoma cells): 2.2 ± 0.49 µM; IC50 [24]: 0.36 ± 0.18 µM; IC50 (Sup T1 cells): 0.61 ± 0.26 µM; IC50 [25]: 0.81 ± 0.42 µM; IC50 (HepG2C3A hepatoma cells): 4.5 ± 1.7 µM; IC50 [26]: ≥ 100 µM; IC50 (MT-4 cells): 1.6 ± 0.21 µM; IC50 (CEM cells; [27]): 1.6 µM; IC50 (CEM cells; [28]): 1.6 ± 0.071 µM
2 | CCOC(=O)c1cc(-c2ccccc2OC)sc1N [TR531, 2-Amino-5-(2-methoxy-phenyl)-thiophene-3-carboxylic acid ethyl ester] | 21 ± 0.71 | 48 ± 11 | 31 ± 6.4 | 38 ± 8.5 | 25 ± 19 | 31 ± 2.1 | 39 | 58 ± 7.1 | 34 ± 4.2 | 48 ± 13 | 45 ± 1.4 | 40 ± 9 | 17 ± 3.5 | 108 ± 5.7 | 43 ± 2.8 | 73 ± 3.5 | 17 ± 3.5 | 133 ± 7.8 | 20 ± 5.1 | 18 ± 1.4 | IC50 (L1210 cells): 41 ± 3 µM; IC50 [20]: 49 ± 1 µM; IC50 [21]: 17 ± 5.7 µM; IC50 (MT-2 cells): 27 ± 4.2 µM; IC50 [22]: 11 ± 5 µM; IC50 [23]: 25 ± 3.5 µM; IC50 (Huh-7 hepatoma cells): 43 ± 12 µM; IC50 [24]: 25 ± 6.4 µM; IC50 (Sup T1 cells): 28 ± 12 µM; IC50 [25]: 28 ± 0.71 µM; IC50 (HepG2C3A hepatoma cells): 10 ± 5.2 µM; IC50 (MT-4 cells): 44 ± 5.7 µM; IC50 (CEM cells; [27]): 27 µM; IC50 (CEM cells; [28]): 27 ± 10 µM
3 | CCOC(=O)c1cc(CCc2cc(OC)ccc2OC)sc1N [TR587, 2-Amino-5-[2-(2,5-dimethoxy-phenyl)-ethyl]-thiophene-3-carboxylic acid ethyl ester] | 0.26 ± 0.15 | 0.83 ± 0.35 | 0.93 ± 0.67 | 1.6 ± 1.1 | 0.71 ± 0.18 | 1.1 ± 1 | 0.39 ± 0.007 | 1 ± 0.11 | 1.4 ± 0.21 | 1.8 ± 0.42 | 0.41 ± 0.028 | 0.33 ± 0.028 | 1.4 ± 0.5 | 0.43 ± 0.24 | 1.7 ± 0.14 | 0.92 ± 0.08 | 3.2 ± 2.4 | 0.82 ± 0.16 | 0.19 ± 0.11 | 0.51 ± 0.42 | IC50 (L1210 cells): 1.2 ± 0.4 µM; IC50 [20]: 2 ± 0.28 µM; IC50 [21]: 0.46 ± 0.35 µM; IC50 (MT-2 cells): 0.7 ± 0.3 µM; IC50 [22]: 0.35 ± 0.064 µM; IC50 [23]: 0.27 ± 0.22 µM; IC50 (Huh-7 hepatoma cells): 0.71 ± 0.35 µM; IC50 [24]: 0.33 ± 0.099 µM; IC50 (Sup T1 cells): 0.54 ± 0.007 µM; IC50 [25]: 0.52 ± 0.007 µM; IC50 (HepG2C3A hepatoma cells): 1.1 ± 0.49 µM; IC50 (MT-4 cells): 1.7 ± 0.59 µM; IC50 (CEM cells; [27]): 0.76 µM; IC50 (CEM cells; [28]): 0.76 ± 0.48 µM
